For ten molecules, response vs control in vivo and LD50 results are on record in US4760136A, “Chartreusin derivatives and salts thereof” (Ishihara Sangyo Kaisha, Ltd., priority 1984, dated 1988).

Each structure is given as a SMILES string. Some results are limits rather than exact numbers.

The test system of one data set is P-388 leukemia cells. The data set is described as follows: Antitumor activity: P-388 leukemia cells inoculated intraperitoneally, drug administered intravenously, BDF1 mice. The format is in vivo. The conditions noted are these: Mus musculus, P388, iv, BDF1 mice, P-388 i.p., read-out: T/C (%) of MST; for response vs control in vivo at 50 mg/kg: dose d: 50 mg/kg × 3, i.v. on days 1, 5 and 9; for response vs control in vivo at 40 mg/kg: dose c: 40 mg/kg × 3, i.v. on days 1, 5 and 9; for response vs control in vivo at 80 mg/kg: dose f: 80 mg/kg × 3, i.v. on days 1, 5 and 9; for response vs control in vivo at 20 mg/kg: dose b: 20 mg/kg × 3, i.v. on days 1, 5 and 9. The method, then:
Into BDF1 mice were inoculated intraperitoneally P-388 leukemia cells at a rate of 1×10^6 cells/mouse, and each drug to be tested was administered intravenously on the first, fifth and ninth days after the inoculation. […] The drugs were as follows solutions prepared by adding physiological saline to each of compound Nos. 8, 9, 10, 11, 17, 34, 42, 59, 80 and 134; suspensions prepared by dispersing each of compound Nos. 41, 78, 98, 100, 130, 191, 212, 213, 215, 227 and 230 to 232 and a small amount of sodium carboxymethyl cellulose (Na.CMC) in physiological saline, […]

Data set [1] can be described thus: Acute toxicity, intravenous (once), ddY mice. The format is in vivo. The conditions noted are these: mouse, in vivo, iv, formulated per Preparation Example. From the text:
In Table 7 are shown acute toxicity values (LD50, mg/kg) in ddY mice in the case of intravenously administering (once) each of the compounds of this invention in the form of preparations shown in the Preparation Examples shown in Table 7.

As for `COC1C(O)C(C)OC(OC2C(Oc3cccc4c(OC(=O)C(CCSC)NC(=O)OCc5ccccc5)c5c(=O)oc6ccc(C)c7c(=O)oc(c34)c5c67)OC(C)C3OC(C)(C)OC32)C1O` (stereo not drawn) [Compound No. 63], the response vs control in vivo at 50 mg/kg with P-388 leukemia cells amounted to 150%. Moreover, in the data set on P-388 leukemia cells (dose g: 100 mg/kg × 3, i.v. on days 1, 5 and 9), the response vs control in vivo at 100 mg/kg is 205%. Besides, the median lethal dose (LD50) (commonly the dose at which mortality reaches 50%) in data set [1] was not below 120 mg/kg.
Regarding `COC1C(O)C(C)OC(OC2C(Oc3cccc4c(OC(=O)CCCCCCCNC(=O)C(F)(F)F)c5c(=O)oc6ccc(C)c7c(=O)oc(c34)c5c67)OC(C)C3OC(c4cccc(F)c4)OC32)C1O` (stereo not drawn) [Compound No. 64], in the data set with P-388 leukemia cells, the response vs control in vivo at 40 mg/kg worked out at 165% and the response vs control in vivo at 80 mg/kg came out at 210%. In data set [1], this molecule showed an LD50 not below 80 mg/kg.
Turning to `COC1C(O)C(C)OC(OC2C(Oc3cccc4c(OC(=O)C(C)CNC(=O)OCc5ccccc5)c5c(=O)oc6ccc(C)c7c(=O)oc(c34)c5c67)OC(C)C3OC(c4ccccc4)OC32)C1O` (stereo not drawn) [Compound No. 69, 6-O-(N-Carbobenzyloxy-β-Amino-Isobutyryl)-3,4-O-Benzylidene-Chartreusin], in the data set on P-388 leukemia cells, the response vs control in vivo at 20 mg/kg is 179% and the response vs control in vivo at 40 mg/kg came to 222%. This molecule showed a median lethal dose (LD50) in data set [1] not below 40 mg/kg.
For the molecule `COC1C(O)C(C)OC(OC2C(Oc3cccc4c(OC(=O)C(CC[S+](C)[O-])NC(=O)OCc5ccccc5)c5c(=O)oc6ccc(C)c7c(=O)oc(c34)c5c67)OC(C)C3OC(c4ccccc4)OC32)C1O` (stereo not drawn) [Compound No. 79, 6-O-(N-Carbobenzyloxy-S-Oxomethionyl)-3',4'-O-Benzylidene-Chartreusin], the response vs control in vivo at 40 mg/kg in the data set on P-388 leukemia cells is 179%. Besides, the LD50 in data set [1] is not below 40 mg/kg.
For `COC1C(O)C(C)OC(OC2C(Oc3cccc4c(OC(=O)CCNC(C)=O)c5c(=O)oc6ccc(C)c7c(=O)oc(c34)c5c67)OC(C)C3OC(C)(C)OC32)C1O` (stereo not drawn) [Compound No. 87, 6-O-(N-Acetyl-β-Alanyl)-3',4'-O-Isopropylidene-Chartreusin], in the data set on P-388 leukemia cells, the response vs control in vivo at 40 mg/kg is 134% and the response vs control in vivo at 80 mg/kg turned out to be 183%. Also, the 50% lethal dose (LD50) in data set [1] is not below 100 mg/kg.
With `COC1C(O)C(C)OC(OC2C(Oc3cccc4c(OC(=O)CCCCCNC(=O)OCc5ccccc5)c5c(=O)oc6ccc(C)c7c(=O)oc(c34)c5c67)OC(C)C3OC(C)(C)OC32)C1O` (stereo not drawn) [Compound No. 111, 6-O-(N-Carbobenzyloxy-6-Amino-n-Hexanoyl)-3',4'-O-Isopropylidene-Chartreusin], in the data set on P-388 leukemia cells (dose e: 60 mg/kg × 3, i.v. on days 1, 5 and 9), the response vs control in vivo at 60 mg/kg was 175%. Besides, the LD50 in data set [1] is not below 100 mg/kg.
For the molecule `COC1C(O)C(C)OC(OC2C(Oc3cccc4c(OC(=O)CCNC(=O)C(Cl)(Cl)Cl)c5c(=O)oc6ccc(C)c7c(=O)oc(c34)c5c67)OC(C)C3OC(C)(C)OC32)C1O` (stereo not drawn) [Compound No. 112, 6-O-(N-Trichloroacetyl-β-Alanyl)-3',4'-O-Isopropylidene-Chartreusin], the response vs control in vivo at 50 mg/kg in the data set with P-388 leukemia cells came out at 148%. Also, the LD50 in data set [1] is not below 100 mg/kg.
As to `COC1C(O)C(C)OC(OC2C(Oc3cccc4c(OC(=O)CNC(=O)CNC(=O)CNC(=O)OCc5ccccc5)c5c(=O)oc6ccc(C)c7c(=O)oc(c34)c5c67)OC(C)C3OC(c4ccccc4)OC32)C1O` (stereo not drawn) [Compound No. 114, 6-O-(N-Carbobenzyloxy-Glycyl-Glycyl-Glycyl)-3',4'-O-Benzylidene-Chartreusin], the response vs control in vivo at 40 mg/kg in the data set with P-388 leukemia cells stood at 130%. This molecule also came in with a 50% lethal dose (LD50) in data set [1] not below 40 mg/kg.
With `COC1C(O)C(C)OC(OC2C(Oc3cccc4c(OC(=O)C(C)CN(C(=O)OCc5ccccc5)C(C)C)c5c(=O)oc6ccc(C)c7c(=O)oc(c34)c5c67)OC(C)C3OC(c4ccccc4)OC32)C1O` (stereo not drawn) [Compound No. 135, 6-O-(N-Carbobenzyloxy-N-Isopropyl-β-Amino-isobutyryl)-3',4'-O-benzylidenechartreusin], in the data set on P-388 leukemia cells, the response vs control in vivo at 20 mg/kg amounted to 167%. The LD50 in data set [1] is not below 40 mg/kg.
Consider `COC1C(O)C(C)OC(OC2C(Oc3cccc4c(OC(=O)CCCO)c5c(=O)oc6ccc(C)c7c(=O)oc(c34)c5c67)OC(C)C3OC(c4ccccc4)OC32)C1O` (stereo not drawn) [Compound No. 147, 6-O-(4-Hydroxy-n-Butyryl)-3',4'-O-Benzylidene-Chartreusin], for which the response vs control in vivo at 20 mg/kg in the data set with P-388 leukemia cells came out at 214%. In data set [1], this molecule returned an LD50 not below 40 mg/kg.
